Results on twelve molecules are retold here after ChEMBL document CHEMBL1134676, “Synthesis and activity of novel and selective I(Ks)-channel blockers” (J Med Chem, 2001).

The target in the first test is T1, Voltage-gated potassium channel, IKs; KCNQ1(Kv7.1)/KCNE1(MinK) (Homo sapiens, UniProt P15382+P51787). Put plainly: Inhibition of human IKs-channel expressed in Xenopus oocytes. The format is cell-based, Oocyte.
T1 sequence (P51787 whole entry): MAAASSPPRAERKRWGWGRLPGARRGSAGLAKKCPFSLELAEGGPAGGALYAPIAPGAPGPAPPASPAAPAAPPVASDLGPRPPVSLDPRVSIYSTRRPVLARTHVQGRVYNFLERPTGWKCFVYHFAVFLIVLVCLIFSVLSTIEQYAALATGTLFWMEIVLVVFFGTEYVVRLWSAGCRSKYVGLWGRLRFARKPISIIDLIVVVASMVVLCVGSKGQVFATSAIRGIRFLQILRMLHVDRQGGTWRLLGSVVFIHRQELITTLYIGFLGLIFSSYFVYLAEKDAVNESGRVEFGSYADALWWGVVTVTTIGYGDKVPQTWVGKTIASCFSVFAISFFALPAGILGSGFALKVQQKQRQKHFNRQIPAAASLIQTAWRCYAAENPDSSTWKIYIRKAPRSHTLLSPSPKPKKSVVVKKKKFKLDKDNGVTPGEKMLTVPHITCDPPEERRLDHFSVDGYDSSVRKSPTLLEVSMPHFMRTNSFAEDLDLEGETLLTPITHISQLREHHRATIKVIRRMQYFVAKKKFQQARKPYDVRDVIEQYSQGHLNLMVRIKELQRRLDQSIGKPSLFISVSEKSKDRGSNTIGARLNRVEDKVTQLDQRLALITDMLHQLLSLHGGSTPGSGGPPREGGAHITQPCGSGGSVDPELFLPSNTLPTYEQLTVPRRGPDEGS
For orientation: IC50 means the midpoint of a concentration-inhibition curve. Take `CN(C1c2cc(OCc3ccccc3)ccc2OC(C)(C)C1O)S(C)(=O)=O` (configuration not stated): half-maximal inhibition (IC50) required 0.2 µM. This lies in the sub-micromolar range.

Turning to `CCS(=O)(=O)N(C)[C@H]1c2cc(OCc3ccccc3)ccc2OC(C)(C)[C@@H]1O`, half-maximal inhibition (IC50) was put at 0.05 µM.

Regarding `CCS(=O)(=O)N(C)[C@@H]1c2cc(F)ccc2OC(C)(C)[C@H]1O`, half-maximal inhibition (IC50) required 2.2 µM.

Turning to `CCS(=O)(=O)N(C)C1c2ccccc2OC(C)(C)C1O` (configuration not stated), the 50% inhibitory concentration (IC50) is 3.1 µM.

For `CCCCOc1ccc2c(c1)C(N(C)S(C)(=O)=O)C(O)C(C)(C)O2` (configuration not stated), the IC50 turned out to be 0.25 µM.

In turn, `CCS(=O)(=O)N(C)C1c2cc(F)ccc2OC(C)(C)C1O` (configuration not stated) returned an IC50 of 1.2 µM. Compared with the last molecule, the IC50 is about 4.8-fold higher.

For the molecule `CCS(=O)(=O)N(C)[C@@H]1c2cc(OCc3ccccc3)ccc2OC(C)(C)[C@H]1O`, the midpoint of inhibition, the IC50, lay at 0.4 µM.

`CCCCS(=O)(=O)N(C)C1c2cc(C#N)ccc2OC(C)(C)C1O` (configuration not stated) gave an IC50 of 58 µM. This IC50 is about 140-fold higher than that of the molecule before.

With `CN(C1c2cc(Cl)ccc2OC(C)(C)C1O)S(C)(=O)=O` (configuration not stated), the IC50 stood at 1.1 µM.

For `CCS(=O)(=O)N(C)C1c2cc(C#N)ccc2OC(C)(C)C1O` (configuration not stated), half-maximal inhibition (IC50) required 6.9 µM.

For another test, the target named is T1, Voltage-gated potassium channel, IKs; KCNQ1(Kv7.1)/KCNE1(MinK). Put plainly: Inhibition of human IKs-channel expressed in Xenopus oocytes,(Experiment 1). The test is classed as cell-based, Oocyte.
Take `CCS(=O)(=O)N(C)[C@H]1c2cc(C#N)ccc2OC(C)(C)[C@@H]1O`: the IC50 amounted to 5 µM.

`CCS(=O)(=O)N(C)[C@@H]1c2cc(C#N)ccc2OC(C)(C)[C@H]1O`: it took 44.5 µM to reach half-maximal inhibition (IC50). This IC50 lies about 8.9-fold higher than the previous one.
